From US20230107216A1, “PANTETHEINE DERIVATIVES AND USES THEREOF” (Comet Therapeutics, Inc., priority 2018, published 2023)
Where two headings read alike, the source gives them in different places.

Legend:
[1] = tested on: oligodendrocyte precursor cells (OPC) in mixed brain cultures; test: Oligodendrocyte precursor cells (OPC) proliferation, O4+ cell count; type: cell-based, mouse; details: 10 uM
Procedure: The effect of compounds of the present disclosure was determined on oligodendrocyte precursor cells proliferation (OPC).
Cell culture. Brains of wild type mice (whole brain from 1 or 2 mouse pups) less than postnatal day (P) 2 were isolated and cultured. Briefly, following removal of the meninges, cells were dissociated with 0.25% EDTA/CMF-DMEM and 1% Trypsin (1:1), plated at a density of 75,000 cells/on 0.1 mg/ml poly-L-lysine coated borosilicate glass coverslips in 24-well plates, grown in OPC differentiation media (Oligo media) consisting of DMEM/F12 (Invitrogen 21331-020) supplemented with 1% FBS, 1% N2 Neural Supplement (Invitrogen 17502-048) and PDGF receptor alpha growth factor (Invitrogen 17502-048). Cells were fed every other day and allowed to grow for 7 days in vitro (DIV).
OPCs treatment with compounds of the present disclosure. Cells were treated with compounds of the present disclosure (50-10 μM) or vehicle (0.1% DMSO) starting at 7 DIV. Media was replaced daily with freshly made working solutions of compounds or vehicle for either 48 h (9 DIV total) or 96 h (11 DIV). The 48 h group consisted of 1 coverslip per condition. The 96 h group was treated in duplicate.
Fresh aliquots of compounds of the present disclosure were made up on the day of treatment, briefly, a 50 mM stock was thawed and used to make up fresh 50 μM working solution in Oligo Media. The fresh 50 μM working solution was diluted further in Oligo Media to make 10 μM working solution. Vehicle controls was made up in fresh Oligo Media using the appropriate amount of vehicle (DMSO). Coverslips were stored in clean 24-well plates at 4° C. until fixed-staining. Cells were imaged using Leica DM5500 fluorescent microscope with LAS-X software.
Exposure settings were maintained at the same rate across compounds of the same time-point. Cells were imaged at 20× and 40× magnifications. At least 5 images were taken per condition. Most conditions had at least 5 images that were counted. 20× images were utilized for counting DAPI (cell nuclei) and O4+ cells.
Total DAPI per image for all images was counted using ImageJ as here indicated. • Image was converted to 8 bit • Blue Channel (DAPI) was automatically thresholded by default ImageJ settings • Image noise was reduced by ImageJ>Process>Noise>Despeckle • ImageJ>Process>Binary>Watershed was used to automatically separate merged cell nuclei • ImageJ>Analyze>Analyze Particles was used to obtain final count of DAPI per image • Total number of DAPI-positive cells
Total number of O4+ cells per 20× image was manually counted using Adobe Photoshop: • All cell bodies of OPCs with underlying DAPI stain were counted as an O4+ cell • Total number of O4+ cells were recorded in Excel Spreadsheet O4+ cells in mixed brain cultures of wild type mice <P2 treated with compounds of the present disclosure or vehicle were quantified per condition (time point and concentration). The following formula was used to normalize the total cell counts within a compound as well as across compounds treated for the same duration (48h vs. 96h):
(number of O4+cell counts in Compound X/Average DAPI count for Compound X)*Total Average DAPI count across compounds of same Time Point
Values were plotted as Scatter Interval plots in Origin. Each data point represents a single image from which O4+ cell values were obtained. Data are presented as mean±S.E.
Images are at 20× magnification and represent 1-2 coverslips per group. Scale bar, 50 μm.

[2] = tested on: primary fibroblasts (healthy controls and PA, MMA, BCKDK, PDH, VLCAD, LS, PC, GA, VLCFA, KSS, FXN, HD); test: Measurement of ROS (H2DCFDA) in primary fibroblasts; type: cell-based, human; details: Homo sapiens, procedure Example 812, Assay Condition C, read-out: Decreased ROS by at least 10%
How it was run: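 Patient and healthy-control primary fibroblasts switched to supplemented DMEM 24 h before assay, then treated with compound (10 μM) plus H2DCFDA (22 μM) for 2 h (PA, MMA lines) or 24 h (other lines). Kinetic fluorescence at 492/527 nm over 60 min; only live cells analysed.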

[3] = tested on: Pkd1−/− mouse inner medullary collecting duct cells (mIMRFNPKD 5E4); test: mPKD 3D cyst swelling assay (forskolin-induced); type: cell-based; details: after 72 hours of forskolin exposure
Procedure: Cell model and control compounds. mIMCD3 WT cells were obtained via ATCC and modified to create the mIMRFNPKD 5E4 cell line, which has a CRISPR-Cas mediated knockout for Pkd1 as described SLAS Discov. 2017 September; 22(8):974-984. doi: 10.1177/2472555217716056. Cells were cultured in DMEM/F12 (Sigma)+10% FBS (Sigma)+0.5% Pen/Strep (Gibco)+1% GluMax (Gibco). Control compounds used were forskolin (Calbiochem, 344282), Rapamycin (Selleckchem, S1039) and Staurosporin (Selleckchem, S1421).
The 3D mouse cyst swelling assay was performed with Pkd1^−/− mouse inner medullary collecting duct cells (mIMRFNPKD 5E4). The cyst swelling protocol that was used was described previously (SLAS Discov. 2017 September; 22(8):974-984. doi: 10.1177/2472555217716056), with further optimization.
3D culture and compound exposure. mIMRFNPKD 5E4 cells were mixed with Cyst-Gel (OcellO BV). 15 μL of cell-gel mix was pipetted to 384-well plates (Greiner μClear, Greiner Bio-One B.V.) using a CyBio Felix 96/60 robotic liquid dispenser (Analyik Jena AG). Gel-cell mix was plated at a final cell density of 2250 cells per well. After gel polymerization at 37° C. for 30 minutes, 33 μL culture medium was added to each well. Cells were grown in the gel for 96 hours, after which the cells were co-exposed with forskolin (Calbiochem, 344282) and one the following molecules: reference compound Rapamycin (SelleckChem, S1039), toxic control compound Staurosporin (SelleckChem, S1421) or test compounds.
Sample processing. After 72 hours, cultures were fixed with 4% Formaldehyde (Sigma Aldrich) and simultaneously permeabilized with 0.2% Triton-X100 (Sigma Aldrich) and stained with 0.25 μM rhodamine-phalloidin (Sigma Aldrich) and 0.1% Hoechst 33258 (Sigma Aldrich) in 1×PBS (Sigma Aldrich) for 2 days at 4° C., protected from light. After fixation and staining, plates were washed with 1×PBS, sealed with a Greiner SilverSeal (Greiner Bio-One B.V.) and stored at 4° C. prior to imaging.
Imaging and image analysis. Imaging was done using Molecular Devices ImageXpress Micro XLS (Molecular Devices) with a 4× NIKON objective. For each well around 35 images in the Z-direction were made for both channels, capturing the whole z-plane in each image. Image analysis was performed using Ominer™ software (OcellO BV). Cysts were segmented using detection of Hoechst-stained nuclei and Rhodamine-phalloidin-stained cellular f-actin. Cyst area was determined by calculating for the area in px of each object in every in-focus plain. This was averaged per well. (N represented is number of wells) Fraction of apoptotic nuclei as an indicator of toxicity was calculated as the amount of nuclei without actin signal relative to the total amount of nuclei, both as count-measurements. Statistics was done using KNIME Analytics Platform (Konstanz, Germany, http://www.knime.org/), graphs were prepared in GraphPad Prism 6 (GraphPad Software, La Jolla, Calif.).

HepG2 cells [4] = test: Glucose uptake (Glucose Uptake-Glo); type: cell-based; details: Homo sapiens, 50 uM, read-out: % increase in Glucose Uptake
[5] = tested on: Venular Endothelial cells (HUVEC) (4H system); test: BioMAP 4H system (IL-4 and histamine); type: cell-based, human; details: Homo sapiens, HUVEC, 24 h; 1 uM; procedure of Example 826; read-out: % decrease in VEGFRII
[6] = tested on: Peripheral blood mononuclear cells co-cultured with venular endothelial cells (HUVEC) (LPS system); test: BioMAP LPS system; type: cell-based, human; details: procedure of Example 827
[7] = tested on: Bronchial epithelial cells co-cultured with dermal fibroblast (BF4T system); test: BioMAP BF4T system (TNFα and IL-4); type: cell-based, human; details: Homo sapiens, 24 h; 10 uM; procedure of Example 830; read-out: % increase in VCAM-1
[8] = tested on: Coronary artery smooth muscle cells (CASM3C system); test: BioMAP CASM3C system (IL-1β, TNFα, IFNγ); type: cell-based, human; details: 10 uM
[9] = tested on: Dermal fibroblasts (HDF3CGF system); test: BioMAP HDF3CGF system (IL-1β, TNFα, IFNγ, EGF, bFGF, PDGF-BB); type: cell-based, human
[10] = tested on: Peripheral blood mononuclear cells co-cultured with B-cells (BT system); details: 1 uM; procedure of Example 829
[11] = tested on: Peripheral blood mononuclear cells co-cultured with B-cells (BT system); test: cells; details: Homo sapiens, 72 h, read-out: % increase in sIL-6
HepG2 cells [12] = test: MitoBiogenesis In-Cell ELISA (COX-I, SDH-A); type: cell-based; details: Homo sapiens, 168 h, 50 uM, 7 days, read-out: % increase in Mitochondrial Biogenesis
Text: We determined the effect of compounds of the present disclosure on the levels of two mitochondrial proteins using MitoBiogenesis™ In-Cell ELISA Kit (Abcam ab110216) according to manufacturer's instructions. The two proteins are each subunits of a different oxidative phosphorylation enzyme complex, one protein being subunit I of Complex IV (COX-1), which is mitochondrial (mt)DNA-encoded, and the other being the 70 kDa subunit of Complex II (SDH-A), which is nuclear (n)DNA-encoded. Complex IV includes several proteins which are encoded in the mitochondrion, while the proteins of Complex II are entirely encoded in the nucleus. HepG2 cells (ATCC, HB-8065) were cultured (5% CO2 at 37° C.) and plated in Poly-D-Lysine 384-Well plate (Corning, 356663) at a density of 40,000 cells/mL in 50 μL. Culture and assay media consisted of DMEM (Gibco, 11995-065) supplemented with 1% Penicillin-Streptomycin and 10% FBS (Hyclone, SV30087.03). Cells were allowed to settle for 30 min at room temperature and further incubated overnight (37° C. and 5% CO2) for adherence. Next day, 50-5 μM of the negative control Chloramphenicol (Selleck, S1677), test compounds (50-10 μM) and vehicle DMSO (0.2%) were added at the recommended volumes to the 384-well plate for 7 days without media change using a Tecan compound dispenser. All the solutions and wash buffers were prepared and dispensed according to manufacturer's volumes for a 384-well plate format. Effects of compounds on mtDNA-encoded protein expression (COX-I) and nuclear DNA-encoded mitochondrial protein expression (SDH-A) were expressed as relative signal (nm) to vehicle of a n=2 per conditions.

HepG2 cells [13] = test: Mitochondrial membrane potential (MITO-ID MP detection Kit); type: cell-based; details: Homo sapiens, 168 h, 10 uM, 7 days, read-out: % decrease in Mitochondrial Membrane Potential
How it was run: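 Cells plated at 160000 cells/mL in DMEM with 10% FBS and 1% Pen-Strep, adhered overnight at 37° C., 5% CO2. Exposure to test compounds (50-10 μM) or 0.2% DMSO for 7 days without media change; membrane potential measured with MITO-ID MP detection kit per manufacturer.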

SMILES: COC(=O)/C=C/C(=O)SCCNC(=O)CCNC(=O)[C@H](O)C(C)(C)CO [Compound 20, Methyl (R,E)-4-((2-(3-(2,4-dihydroxy-3,3-dimethylbutanamido)propanamido)ethyl)thio)-4-oxobut-2-enoate]
- % Increase OPC proliferation [1]: ≥25%
- inhibition at 10 µM ([2]; Fibroblast, NPC1 GM22879): ≥ 10%
- inhibition at 10 µM ([2]; FXN GM04078): ≥ 10%

SMILES: COC(=O)CCC(=O)CC(=O)SCCNC(=O)CCNC(=O)[C@H](O)C(C)(C)COC(C)=O [Compound 141, methyl 6-[(2-[3-[(2R)-4-(acetyloxy)-2-hydroxy-3,3-dimethylbutanamido]propanamido]ethyl)sulfanyl]-4,6-dioxohexanoate]
- % prevention of forskolin-induced cyst swelling ([3]; 50 uM): ≥10%
- activation at 50 µM (HepG2 cells [4]): ≥ 30%
- inhibition at 1 µM [5]: ≥ 20%
- % decrease in M-CSF ([6]; 1 uM): ≥10%
- inhibition at 10 µM ([6]; Homo sapiens, HUVEC, 24 h, 10 uM, read-out: % decrease in sPGE2): ≥ 10%
- activation at 10 µM ([6]; Homo sapiens, HUVEC, 24 h, 10 uM, read-out: % increase in sTNFα): ≥ 10%
- activation at 10 µM [7]: ≥ 20%
- % increase in Proliferation ([8]; procedure of Example 832): ≥10%
- inhibition at 10 µM ([8]; Homo sapiens, 24 h, read-out: % decrease in Thrombomodulin): ≥ 10%
- % decrease in Collagen I ([9]; 1 uM, procedure of Example 833): ≥10%
- % increase in SRB ([9]; 10 uM): ≥10%
- inhibition at 1 µM ([9]; Homo sapiens, Fibroblast, 24 h, 1 uM, read-out: % decrease in Collagen III): ≥ 10%
- % decrease in B-cell proliferation [10]: ≥10%
- activation at 1 µM [11]: ≥ 20%

SMILES: COC(=O)CCC(=O)SCCNC(=O)CCNC(=O)[C@H](O)C(C)(C)COP1(=O)OCCO1 [Compound 1308]
- % prevention of forskolin-induced cyst swelling ([3]; 10 uM): ≥10%
- activation at 50 µM (HepG2 cells [12]): > 5%
- inhibition at 10 µM (HepG2 cells [13]): > 50%
